Data reported in patent publication US20060110789A1, “Methods to mediate polyketide synthase module effectiveness” (priority 2002, published 2006).

Experiments:
[1] = tested on: (5)M3+TE and (3)M3+TE; conditions: either module 3+TE derivative, previously shown; cited from earlier work
[2] = molecular target: T1, module 6+TE ((5)M6+TE) (Saccharopolyspora erythraea, UniProt Q03133, DEL53-1503); conditions: NAC thioester substrate, shown earlier; cited from earlier work
T1 construct: The protein was, in each case, a single module of the DEBS PKS fused to the thioesterase (TE) termination region of module 6; first 39 amino acids of module 5 (N-ERL); made in house; host or cells: E. coli (BL21(DE3) with sfp)

[3] = molecular target: T2, module 2+TE ((5)M2+TE) (Saccharopolyspora erythraea, UniProt Q03131+Q03133); conditions: NAC thioester substrate, shown earlier; cited from earlier work
T2 construct: The protein was, in each case, a single module of the DEBS PKS fused to the thioesterase (TE) termination region of module 6; first 39 amino acids of module 5 (N-ERL); made in house; host or cells: E. coli (BL21(DE3) with sfp)

[4] = tested on: module 5+TE ((5)M5+TE); conditions: NAC thioester substrate at saturating concentration, shown earlier; cited from earlier work
[5] = tested on: (5)M2+TE, (5)M5+TE, and (5)M6+TE; conditions: Wu et al. 2000; cited from earlier work
[6] = tested on: DEBS module 5 ((5)M5+TE or (3)M5+TE); test: Substrate transfer and elongation assay, acceptor DEBS module 5; format: biochemical
Method: (§1) Substrate transfer and elongation assays. Qualitative assays were performed with a diketide-ACP or diketide-PCP substrate either taken directly from the so phosphopantetheinlyation reaction or after further purification of the substrate. These assays were performed with 20 μM diketide-ACP/PCP substrate for 2 hours in the following reaction conditions: 1 μM acceptor module, 0.5 mM ^14C-methylmalonyl CoA, 4 mM NADPH in buffer C, 30° C. After quenching by addition of 250 μL EtOAc and vortexing, the products were extracted with 2×250 μL EtOAc, resolved on a silica gel TLC plate, and visualized on a Packard InstantImager.
(§2) The kinetics of substrate transfer at the module 2-module 3 interface followed by elongation and product release were examined as a function of the k60 μM and kcat/KM values of the overall reaction. The k60 μm values reported here represent the apparent overall rate of product formation at an initial substrate concentration of 60 μM. In many cases, the k60μm values approximate the maximal overall turnover rates, as determined by back calculating the KM value for the reactions. True saturation kinetics were not practical because of the technical limitations (e.g., solubility) and limited supply associated with high molecular weight substrates such as diketide-ACP and diketide-PCP. kcat/KM values were determined by competitive assay of the substrate of interest against a substrate with a known kcat/KM value, as previously described (Wu, et al., (2001) J. Am. Chem. Soc. 123, 6465-6474). […]
(§3) These reactions were quenched by the addition of 80 μL 12.5% SDS to 2 μL reaction mixture and immediate vortexing. […] After removing the organic solvents in vacuo, the residual products were then spotted onto a TLC plate (Baker-flex 250 uM silica gel), resolved in 60% EtOAc/40% hexanes, and the radioactive spots were visualized and quantified on a Packard InstantImager. […]

[7] = molecular target: T3, (5)M6+TE (Saccharopolyspora erythraea, UniProt Q03133, DEL53-1503); test: Substrate transfer and elongation assay, acceptor DEBS module 6; format: biochemical
T3 construct: The protein was, in each case, a single module of the DEBS PKS fused to the thioesterase (TE) termination region of module 6; first 39 amino acids of module 5 (N-ERL); made in house; host or cells: E. coli (BL21(DE3) with sfp)
Method: as §1, §2, §3

[8] = tested on: DEBS module 3 ((3)M3+TE or (5)M3+TE); test: Substrate transfer and elongation assay, acceptor DEBS module 3; format: biochemical; conditions: 20 μM substrate; FIG. 27 A: diketide-ACP2(2)+(3)M3+TE; B: diketide-ACP2(4)+(3)M3+TE; C: diketide-ACP4(4)+(5)M3+TE; D: diketide-ACP4(4)+(3)M3+TE
Method: as §1
as §2, with “The k60 μm values reported here represent the apparent overall rate of product formation at an initial substrate concentration of 60 μM.” left out

[9] = molecular target: T4, (5)M2+TE (Saccharopolyspora erythraea, UniProt Q03131+Q03133); test: Substrate transfer and elongation assay, acceptor DEBS module 2; format: biochemical
T4 construct: The protein was, in each case, a single module of the DEBS PKS fused to the thioesterase (TE) termination region of module 6; first 39 amino acids of module 5 (N-ERL); made in house; host or cells: E. coli (BL21(DE3) with sfp)
Method: as §1, §2, §3

[10] = versus diketide-ACP4(4), stated jointly for modules 2 and 6

| Compound | qualitative incorporation of NAC thioesters [1] | kcat [2] [s⁻¹] | kcat [3] [s⁻¹] | kcat (elongation rate constant) [4] [s⁻¹] | qualitative turnover of NAC thioesters [5] | qualitative transfer of diketide to module 5 (triketide lactone formation) ([6]; 20 μM substrate, FIG. 28 A: diketide-ACP4(4)+(5)M5+TE, B: diketide-ACP4(4)+(3)M5+TE, C: diketide-ACP2(4)+(5)M5+TE, D: diketide-ACP2(2)+(5)M5+TE) | k60μm ([6]; acceptor (3)M5+TE, FIG. 29 B) [min⁻¹] | k60μm ([6]; acceptor (5)M5+TE, FIG. 29 A) [min⁻¹] | qualitative transfer of diketide to (5)M6+TE ([7]; 20 μM substrate, 2 hours) | drop of k60 μM when linker interactions are eliminated [7, 10] | drop of kcat/KM when linker interactions are eliminated [7, 10] | qualitative transfer of diketide to module 3 (triketide lactone formation) [8] | qualitative transfer of diketide to (5)M2+TE ([9]; 20 μM substrate, 2 hours) | drop of k60 μM when linker interactions are eliminated [9, 10] | drop of kcat/KM when linker interactions are eliminated [9, 10] |
| --- | --- | --- | --- | --- | --- | --- | --- | --- | --- | --- | --- | --- | --- | --- | --- |
| CCC(O)C(C)C(=O)SCCNC(C)=O (stereo not drawn) [2a] | readily incorporated and elongated | 0.283 | 0.0767 | 0.00417 | substrates for the three modules |  |  |  |  |  |  |  |  |  |  |
| diketide-ACP4(Ø): diketide on isolated ACP4 domain without linker region |  |  |  |  |  | Formation of the expected triketide lactone was observed | 0.27 | 0.49 | observed | approximately 10 fold | 70-300 fold | not able to efficiently transfer substrates | observed | approximately 10 fold | 70-300 fold |
